Results: patent US20200085776A1, “Methods of Reducing C-Reactive Protein and/or Treating Cardiovascular Disease” (CARDAX, INC., priority 2018, published 2020)

Test system: HDL
Test: Fasting lipid panel: HDL, CHASE clinical study
Type: in vivo, human
Conditions: for HDL V2 to V6 % Change Max / HDL V2 to V6 % Change Mean (SD) / HDL V2 to V6 % Change Median / HDL V2 to V6 % Change Min / HDL V2 to V6 Change Max / HDL V2 to V6 Change Mean (SD) / HDL V2 to V6 Change Median / HDL V2 to V6 Change Min: baseline to Week 12
Source text: Blood samples shall be obtained under fasted conditions for a lipid panel at V2, V4, V6, V7, and V8. This panel shall include total cholesterol, LDL-C, VLDL-C, HDL-C, and triglycerides. A minimum eight-hour fast (water allowed) is required for the lipid panel.
Fasting lipid profiles and fasting chemistry panels may be obtained within the visit time window on a day separate from the scheduled office visit, within two days before or after the other study procedures. A minimum of eight hours fasted (water allowed ad lib) is required.
Table 7M provides the changes in lipid levels (mg/dL) (V2 to V6) for subjects.

[1] = Group X 12 mg BID, V2 baseline pre-dose, all subjects
[2] = Group X 12 mg BID, V2 baseline pre-dose, subjects with hyperlipidemia
[3] = Group X 12 mg BID, V6 Week 12, all subjects
[4] = Group X 12 mg BID, V6 Week 12, subjects with hyperlipidemia
[5] = Group X 12 mg BID, all subjects
[6] = Group X 12 mg BID, subjects with hyperlipidemia
[7] = Group Z 48 mg BID, V2 baseline pre-dose, all subjects
[8] = Group Z 48 mg BID, V2 baseline pre-dose, subjects with hyperlipidemia
[9] = Group Z 48 mg BID, V6 Week 12, all subjects
[10] = Group Z 48 mg BID, V6 Week 12, subjects with hyperlipidemia
[11] = Group Z 48 mg BID, all subjects
[12] = Group Z 48 mg BID, subjects with hyperlipidemia

CC1=C(/C=C/C(C)=C/C=C/C(C)=C/C=C/C=C(C)/C=C/C=C(C)/C=C/C2=C(C)C(=O)C(O)CC2(C)C)C(C)(C)CC(O)C1=O (stereo not shown) [Astaxanthin, astaxanthin]
HDL Max [1]: 73.00 mg/dL
HDL Mean (SD) [1]: 46.00 (17.37) mg/dL
HDL Median [1]: 42.00 mg/dL
HDL Min [1]: 24.00 mg/dL
HDL Max [2]: 67.00 mg/dL
HDL Mean (SD) [2]: 45.38 (17.08) mg/dL
HDL Median [2]: 42.50 mg/dL
HDL Min [2]: 24.00 mg/dL
HDL Max [3]: 68.00 mg/dL
HDL Mean (SD) [3]: 45.27 (13.68) mg/dL
HDL Median [3]: 42.00 mg/dL
HDL Min [3]: 29.00 mg/dL
HDL Max [4]: 65.00 mg/dL
HDL Mean (SD) [4]: 44.13 (13.24) mg/dL
HDL Median [4]: 41.00 mg/dL
HDL Min [4]: 29.00 mg/dL
HDL V2 to V6 % Change Max [5]: 24.14%
HDL V2 to V6 % Change Mean (SD) [5]: 1.78 (14.18) %
HDL V2 to V6 % Change Median [5]: −2.99%
HDL V2 to V6 % Change Min [5]: −16.3%
HDL V2 to V6 Change Max [5]: 7.00 mg/dL
HDL V2 to V6 Change Mean (SD) [5]: −0.73 (5.75) mg/dL
HDL V2 to V6 Change Median [5]: -1.00 mg/dL
HDL V2 to V6 Change Min [5]: -9.00 mg/dL
HDL V2 to V6 % Change Max [6]: 24.14%
HDL V2 to V6 % Change Mean (SD) [6]: 0.85 (15.61) %
HDL V2 to V6 % Change Median [6]: −3.06%
HDL V2 to V6 % Change Min [6]: −16.3%
HDL V2 to V6 Change Max [6]: 7.00 mg/dL
HDL V2 to V6 Change Mean (SD) [6]: −1.25 (6.11) mg/dL
HDL V2 to V6 Change Median [6]: -1.50 mg/dL
HDL V2 to V6 Change Min [6]: -9.00 mg/dL
HDL Max [7]: 77.00 mg/dL
HDL Mean (SD) [7]: 47.79 (14.77) mg/dL
HDL Median [7]: 40.00 mg/dL
HDL Min [7]: 29.00 mg/dL
HDL Max [8]: 77.00 mg/dL
HDL Mean (SD) [8]: 44.93 (13.59) mg/dL
HDL Median [8]: 40.00 mg/dL
HDL Min [8]: 29.00 mg/dL
HDL Max [9]: 75.00 mg/dL
HDL Mean (SD) [9]: 47.11 (14.59) mg/dL
HDL Median [9]: 41.00 mg/dL
HDL Min [9]: 30.00 mg/dL
HDL Max [10]: 72.00 mg/dL
HDL Mean (SD) [10]: 44.71 (13.00) mg/dL
HDL Median [10]: 39.00 mg/dL
HDL Min [10]: 32.00 mg/dL
HDL V2 to V6 % Change Max [11]: 24.53%
HDL V2 to V6 % Change Mean (SD) [11]: −3.43 (10.55) %
HDL V2 to V6 % Change Median [11]: −5.80%
HDL V2 to V6 % Change Min [11]: −22.7%
HDL V2 to V6 Change Max [11]: 13.00 mg/dL
HDL V2 to V6 Change Mean (SD) [11]: −1.72 (5.19) mg/dL
HDL V2 to V6 Change Median [11]: -3.00 mg/dL
HDL V2 to V6 Change Min [11]: -10.0 mg/dL
HDL V2 to V6 % Change Max [12]: 24.53%
HDL V2 to V6 % Change Mean (SD) [12]: −2.50 (11.26) %
HDL V2 to V6 % Change Median [12]: −4.04%
HDL V2 to V6 % Change Min [12]: −22.7%
HDL V2 to V6 Change Max [12]: 13.00 mg/dL
HDL V2 to V6 Change Mean (SD) [12]: −1.36 (5.64) mg/dL
HDL V2 to V6 Change Median [12]: -2.00 mg/dL
HDL V2 to V6 Change Min [12]: -10.0 mg/dL
